Usually CC50 stands for the concentration at which the toxic effect on the cells reaches its halfway point. What is called IC50 is the concentration that gives 50% inhibition.

Molecules are shown by their SMILES.

Two molecules from ChEMBL document CHEMBL3603786, “The 2',4'-dihydroxychalcone could be explored to develop new inhibitors against the glycerol-3-phosphate dehydrogenase from Leishmania species” (Bioorg Med Chem Lett, 2015) can be followed below.

Data set [1] deals with Leishmania amazonensis. The experiment in a line: Ratio of pentamidine IC50 to compound IC50 for Leishmania amazonensis MPRO/BR/1972/M1841-LV-79. The format is functional.
Data set [2] can be described thus: Selectivity index, ratio of CC50 for Swiss albino mouse peritoneal macrophages to IC50 for promastigotes of Leishmania amazonensis MPRO/BR/1972/M1841-LV-79. It counts as functional.
A short description of data set [3]: Cytotoxicity against Swiss albino mouse peritoneal macrophages after 24 hrs by MTT assay. The format is cell-based, Peritoneal macrophage cell.
Data set [4] deals with Leishmania amazonensis. The experiment in a line: Antileishmanial activity against promastigotes of Leishmania amazonensis MPRO/BR/1972/M1841-LV-79 after 72 hrs by MTT assay. The format is functional, organism-based. Particulars: MPRO/BR/1972/M1841-LV-79, 72 h. Background: Formazan colour is commonly taken as a measure of viable cells.

As to `O=C(/C=C/c1ccccc1)c1ccc(O)cc1O` [2',4'-DIHYDROXYCHALCONE], the “Ratio IC50” value in the data set with Leishmania amazonensis [1] was found to be 16. Moreover, in data set [2], the “Ratio CC50/IC50” value is recorded as 1041.7. Besides, it took 417 µM to reach half-maximal cytotoxicity in data set [3] (CC50 at 24 h). Further, half-maximal inhibition in the data set with Leishmania amazonensis [4] (IC50) was put at 0.4 µM.

With `N=C(N)c1ccc(OCCCCCOc2ccc(C(=N)N)cc2)cc1` [PENTAMIDINE], the “Ratio CC50/IC50” value in data set [2] is 5.3. The same molecule gave a 50% cytotoxic concentration (CC50) at 24 h in data set [3] of 35.7 µM. This molecule registered an IC50 in the data set on Leishmania amazonensis [4] of 6.7 µM.
